Two sequences from patent publication US11827690B2, “ApoC-II mimetic peptides” (THE UNITED STATES OF AMERICA, as represented by the …, priority 2017, dated 2023) can be followed below.

Test [1] has as its system chylomicrons isolated from human plasma. In words: ApoC-III displacement study in chylomicrons isolated from human plasma. In kind it is binding. As to the method:
VLDL or chylomicrons isolated from human plasma were incubated with an apoC-II mimetic peptide for 1 hour at 37° C. and washed 3 times with PBS using spin filter with 100 kDa cutoff membrane. Supernatants were brought to the original volume with PBS and loaded to 4-12% Bis-TRIS SDS PAGE gel. ApoC-I, apoC-II, apoC-III, and apoE bands were identified by their corresponding size.

In test [2] the target is T1, LPL inhibited by apoC-III (Bos taurus, UniProt P11151).
T1 sequence (P11151 29-478): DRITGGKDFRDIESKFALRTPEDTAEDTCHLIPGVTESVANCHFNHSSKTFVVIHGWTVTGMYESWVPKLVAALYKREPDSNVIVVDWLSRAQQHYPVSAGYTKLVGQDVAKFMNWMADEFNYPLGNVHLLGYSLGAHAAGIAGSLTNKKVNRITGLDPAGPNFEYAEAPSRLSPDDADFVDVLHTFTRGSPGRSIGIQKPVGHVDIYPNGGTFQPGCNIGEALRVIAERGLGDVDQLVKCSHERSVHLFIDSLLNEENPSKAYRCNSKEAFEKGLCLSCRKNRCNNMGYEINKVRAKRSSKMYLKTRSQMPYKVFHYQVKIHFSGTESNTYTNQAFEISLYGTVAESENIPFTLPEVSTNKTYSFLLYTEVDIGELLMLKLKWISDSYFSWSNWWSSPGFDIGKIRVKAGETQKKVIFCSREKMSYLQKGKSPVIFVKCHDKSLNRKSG
In words: LPL activation assay using apoC-III transgenic mice plasma as substrate. It is filed as biochemical. The following applies: all three transgenic mice plasma samples, FIG. 33. On the set-up: host or cells: apoC-III comes with the plasma of apoC-III transgenic C57Bl/6 mice. As to the method:
LPL activity assay: 10 μL of Intralipid, human plasma sample, or mouse plasma sample was added in each well using repeater pipette. 10 μL (or 15 μL in the wells with no LPL control) of PBS and 10 μL of 1% BSA was added in each well using repeater pipette. 10 μL of peptides were added to corresponding wells in vertical triplicates (lowest concentration is on a left, highest is on the right). The plate was spun down at 1000 RPM for 10 seconds to mix and to remove the solutions from the wall of each well. The plate was put on ice and 5 μL of LPL was added using repeater pipette. The plate was spun down again at 1000 RPM for 10 seconds. The plate was covered and put back on ice for an incubation of 30 min. The plate was then moved to 37° C. and incubated for 1 hour.
Free fatty acids (NEFA) assay: 45 μL of 5 nmoL standard and 0 nmoL control (0.2% BSA) were added to corresponding wells. 225 μL of reagent A was added in each well using the reagent tray and 12-channel pipette. The plate was incubated for 10 min before 75 μL of reagent B was added to each well using the reagent tray and 12-channel pipette. The plate was not covered due to the high volume. The absorbance at 550 nm and 660 nm was measured.
LPL assay was performed using Intralipid, high TG human plasma (1:50 dilution), or apoC-III transgenic mouse plasma (1:50 dilution). […]

A further test deals with apoC-II knockout mice. In words: plasma lipids of apoC-II knockout mice after peptide injection. In kind it is in vivo.
Setting [3] is: SEC-FPLC, 1 μmole/kg, 6 hours after injection, FIG. 41.

Regarding “DWLKAFYDKVAEKLKEAFPAMSTYTGIFTDQVLSVLKGEE (listed as Homo sapiens) [apoC-II-a, excluded from the claimed peptides]”, in test [1], the “affinity for chylomicrons compared with the apolipoproteins” value was “higher affinity for chylomicrons than the apolipoproteins”. Also, the “effect on inhibition by elevated expression of apoC-III” value in test [2] is recorded as “overcame the inhibitory effect of elevated expression of apoC-III”; in test [2] (listed as ApoC-II-a), “overcomes the inhibitory effect of elevated expression of apoC-III”.
Regarding “DYLKEVFEKLRDLYEKFTPAVSTYTGIFTDQVLSVLKGEE [Delta6PV]”, in the test with apoC-II knockout mice (0.1 μmol/kg intraperitoneally, after the peptide injection), the “time of maximum reduction of plasma TG” value is recorded as “about 6 hours”. Besides, the “plasma TG” value in the test on apoC-II knockout mice (0.1 μmol/kg of body weight intraperitoneally, FIG. 53) is “rapid reduction of plasma TG”; in the test on apoC-II knockout mice (intraperitoneal injection) it was “rapid and marked reduction of plasma TG”; in the test on apoC-II knockout mice (repeat IP injection at 24 h intervals for 6 days, 0.25 and 1 μmole/kg, FIG. 40), “marked and lasting reduction of plasma TG”; in the test with apoC-II knockout mice (subcutaneous injection), “rapid and marked reduction of plasma TG”. Further, the “level of HDL as measured by the phospholipid level” value with apoC-II knockout mice (setting [3]) is reported as “increased”. Moreover, the “level of VLDL as measured by the phospholipid level” value in the test on apoC-II knockout mice (setting [3]) is on record as “decreased”. Besides, in the test with apoC-II knockout mice (SEC-FPLC, 1 μmole/kg, FIG. 42), the “level of TG in the VLDL pool” value was “decreased”.
